Measured values reported in patent publication US20090137565A1, “Method for treatment of movement disorders” (The Trustees of Columbia University in the City of New York, priority 2004, published 2009).

Key:
[1] = Single-patient GHB trial: tolerability / adverse events; format: in vivo, human
Method: All office visits and the UMRS scale were performed by the supervisory physician. The patient came to the office for five visits, each separated by two weeks (time 0, 2 weeks, 4 weeks, 6 weeks and 8 weeks). At each visit, the physician examined the patient, and inquired about any adverse events. The physician performed the UMRS while the patient was videotaped. Xyrem® was dispensed by the physician at each visit.
At the initial visit the UMRS was performed and videotaped, 1 gm of GHB was administered by mouth, and they were monitored in the office for one hour. They then took 1 gm twice daily for two weeks, at which time they returned to the office. One hour after receiving 2 grams of GHB, the UMRS was performed and videotaped and for the next two weeks they took 2 grams twice daily. Two weeks later, the UMRS was performed and videotaped one hour after receiving 3 grams of GHB, and after two weeks of 3 grams twice daily, the same procedure was performed after receiving 4 grams in the office. After taking 4 grams twice daily for two weeks, they returned for UMRS videotaping, and the decision was made to continue the target dose of 4 gm twice daily.
The clinical trial was designed with a very slow titration schedule, in order to prevent possible side effects such as sedation, worsening of ataxia or orthostasis. Like most forms of myoclonus, posthypoxic myoclonus disappears during sleep and it is therefore necessary to administer the drug during waking hours in order to observe its effects.

[2] = test system: medication-refractory hyperkinetic movements; experiment: Twenty-patient trial: clinical course (onset, wear-off, continuation); format: in vivo, human; settings: noted by most patients at higher doses
Description: Twelve men and 8 women enrolled. Results from patients #6, and #s 1, 2, 7, 12, and 13 were reported previously. Frucht, S. J., et al. Mov Disord 20:745-51 (2005); Frucht, S. J., et al. Mov Disord 20:1330-7 (2005). Mean age/symptom duration was 43.9 yrs/12.3 yrs (myoclonus) and 71.2 yrs/26.7 yrs (ET). Patients with myoclonus were examined and videotaped at each visit using the Unified Myoclonus Rating Scale (UMRS), and patients with ET were examined and videotaped using the modified Washington Heights Inwood Genetic Essential Tremor Rating Scale (WHIGET; Appendix 1). Frucht, S. J., et al. Mov Disord 20:1330-7 (2005). After initial baseline examination and videotaping, patients took 1 gm of sodium oxybate by mouth (2 ml of the standard 0.5 gm/ml solution dissolved in 60 ml of water), and one hour later the videotaped examination was repeated. Patients were maintained on a dose of 1 gm T.I.D. (taken before meals) until their next office visit two weeks later, when the examination and videotaping were repeated one hour after receiving 1.5 gm of sodium oxybate. Subsequent visits and dose titrations at two-week intervals were repeated until the maximum dose was reached (3 gm T.I.D), patients were satisfied with the results of treatment, or until they developed side effects that they viewed as troublesome. […]

SMILES: O=C([O-])CCCO.[Na+] [GHB, 4-hydroxybutanoic acid monosodium salt]
- adverse effect reported by patient ([1]; after the first 1 gm dose): slight dizziness
- tolerability ([1]; divided doses during the day): well tolerated
- sedation ([1]; two daytime doses of 4 gm, concurrent clonazepam and levetiracetam): without significant sedation
- wear-off of benefit [2]: four to five hours
